Columns and labels:
[1] = molecular target: acetylcholinesterase (eeAChE, from Electrophorus electricus) (Electrophorus electricus, UniProt O42275); assay: biochemical; details: for Selectivity Index (SI) (AChE): Selectivity ratio [IC50(BChE)/IC50(AChE)]; for IC50: eeAChE, mean ± SEM of three independent experiments, duplicate samples, read-out: IC50 ± SEM AChE
Protocol: (§1) The AChE and BChE inhibitory activity assays were performed using a BioTek Epoch 2 microplate spectrophotometer in clear, flat-bottom 96-well plates. […] To each well, 295 µL phosphate buffer pH 8.0, 10 µL enzyme solution (AChE/BChE), and 10 µL target compound solutions were added together and allowed to stand for 4 min at room temperature. Then, 10 µL of 0.01 M solution freshly prepared Ellman’s reagent 5,5′-dithiobis(2-nitrobenzoic acid) (DTNB) was added to each well. The reaction in the wells was started by the addition of 2 µL of 0.075 M solution freshly prepared substrate (ATCh (acetylthiocholine iodide)/BTCh (S-butyrylthiocholine iodide)) solution. The solution was mixed immediately and incubated for 2:30 min for AChE or for 5 min for BChE inside the microplate reader at 26 °C. […] The IC50 values were calculated graphically by nonlinear regression analysis of inhibition curves that were obtained by plotting the logarithm of the inhibitor concentrations versus the percentage of inhibition (log(inhibitor) vs. normalised response) using GraphPad Prism 8 software (See Supplementary Information for details).

[2] = molecular target: T1, butyrylcholinesterase (eqBChE, from equine serum) (Equus caballus, UniProt P81908); assay: biochemical; details: mean ± SEM of three independent experiments, duplicate samples, read-out: IC50 ± SEM BChE
T1 construct: butyrylcholinesterase (eqBChE, from equine serum); from tissue; host or cells: equine serum
T1 sequence (P81908 whole entry): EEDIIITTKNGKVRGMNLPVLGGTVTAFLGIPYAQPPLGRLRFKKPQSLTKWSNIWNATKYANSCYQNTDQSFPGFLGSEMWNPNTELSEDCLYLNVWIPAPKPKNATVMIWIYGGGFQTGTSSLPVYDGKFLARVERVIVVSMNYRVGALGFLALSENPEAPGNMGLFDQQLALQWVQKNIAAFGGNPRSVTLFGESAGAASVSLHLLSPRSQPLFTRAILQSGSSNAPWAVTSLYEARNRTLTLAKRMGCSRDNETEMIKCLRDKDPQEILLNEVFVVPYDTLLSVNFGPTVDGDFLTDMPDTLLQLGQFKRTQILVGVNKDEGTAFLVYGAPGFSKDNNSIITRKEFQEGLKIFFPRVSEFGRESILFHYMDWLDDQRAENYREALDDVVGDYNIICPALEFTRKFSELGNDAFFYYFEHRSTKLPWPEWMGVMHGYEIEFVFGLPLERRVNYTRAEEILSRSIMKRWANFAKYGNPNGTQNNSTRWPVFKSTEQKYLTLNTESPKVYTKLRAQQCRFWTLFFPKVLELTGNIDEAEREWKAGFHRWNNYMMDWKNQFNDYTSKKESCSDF
Protocol: as §1

[3] = ABTS radical cation decolorisation antioxidant assay
Protocol: The antioxidant activity was determined using a radical cation (ABTS^.+) decolorisation assay, as described by Xiao et al.[21] with a few modifications. The assay used a BioTek Epoch 2 microplate spectrophotometer (Agilent, USA) with clear, flat-bottom 96-well plates. The 7 mmol/L ABTS^.+ stock solution was prepared by dissolving 96.02 mg ABTS in acetic acid buffer (pH 4.5) and to a final volume of 25 ml, which was kept in the dark at 0–4 °C. A 2.45 mmol/L potassium persulfate (K2S2O8) stock solution was prepared by dissolving 66.24 mg K2S2O8 in acetic acid buffer solution with pH 4.5, and then diluted to 100 ml and kept in the dark at 0–4 °C. The ABTS working solution was prepared by mixing similar quantities of 7 mmol/L ABTS and 2.45 mmol/L K2S2O8. This solution was stored in a dark cabinet for 16 h before use, when it was diluted with distilled water to obtain an absorbance of 0.70 at 734 nm. In a clear, flat-bottom 96-well plate, 200 μL of ABTS working solution and 10.0 μL sample solution at different concentrations (0.0312–0.5 mg/mL) were mixed well and incubated in the dark for 7 min before the absorbance was measured at 734 nm using a microplate reader. A blank was run for each assay, and all measurements were performed after 7 min. The ABTS scavenging capacity of inhibitors was compared with that of trolox and α-tocopherol. […]

Sequence of acetylcholinesterase (eeAChE, from Electrophorus electricus) (O42275 24-633): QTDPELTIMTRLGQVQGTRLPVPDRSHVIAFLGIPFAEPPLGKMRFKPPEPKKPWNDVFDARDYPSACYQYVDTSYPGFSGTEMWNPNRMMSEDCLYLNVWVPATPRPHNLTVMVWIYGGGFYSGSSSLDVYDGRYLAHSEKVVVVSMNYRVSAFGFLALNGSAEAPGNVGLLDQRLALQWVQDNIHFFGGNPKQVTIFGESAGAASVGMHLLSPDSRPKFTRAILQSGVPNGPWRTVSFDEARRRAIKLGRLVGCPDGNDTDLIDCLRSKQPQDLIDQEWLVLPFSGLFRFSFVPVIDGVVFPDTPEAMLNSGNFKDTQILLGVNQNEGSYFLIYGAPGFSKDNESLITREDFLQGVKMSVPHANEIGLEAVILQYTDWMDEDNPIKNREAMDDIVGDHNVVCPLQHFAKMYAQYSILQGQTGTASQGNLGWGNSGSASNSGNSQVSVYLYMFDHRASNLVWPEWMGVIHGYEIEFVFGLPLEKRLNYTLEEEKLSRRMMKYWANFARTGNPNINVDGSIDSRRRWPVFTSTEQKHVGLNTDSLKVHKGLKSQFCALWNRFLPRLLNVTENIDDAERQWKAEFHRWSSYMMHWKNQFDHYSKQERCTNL

| SMILES | Selectivity Index (SI) (AChE) [1] | IC50 [1] | IC50 [2] | ABTS Inhibition % ([3]; 0.0312 mg/mL) | ABTS Inhibition % ([3]; 0.0625 mg/mL) | ABTS Inhibition % ([3]; 0.125 mg/mL) | ABTS Inhibition % ([3]; 0.25 mg/mL) | ABTS Inhibition % ([3]; 0.5 mg/mL) |
| --- | --- | --- | --- | --- | --- | --- | --- | --- |
| O=C(/C=C/c1ccccc1)/C=C/c1cc[n+](Cc2ccc(Br)cc2)cc1 [Compound 7c, 1–(4-Bromobenzyl)-4-(1E,4E)-3-oxo-5-phenylpenta-1,4-dien-1-yl)pyridin-1-ium bromide] | 3 | 280 ± 0.2 nM | – | – | – | – | – | – |
| Cc1ccc(C[n+]2ccc(/C=C/C(=O)/C=C/c3ccccc3)cc2)cc1 [Compound 7d, 1–(4-Methylbenzyl)-4-(1E,4E)-3-oxo-5-phenylpenta-1,4-dien-1-yl)pyridin-1-ium bromide] | 4 | 1120 ± 0.14 nM | 4500 ± 73 nM | – | – | – | – | – |
| O=C(/C=C/c1ccccc1)/C=C/c1cc[n+](Cc2ccc([N+](=O)[O-])cc2)cc1 [Compound 7e, 1–(4-Nitrobenzyl)-4-(1E,4E)-3-oxo-5-phenylpenta-1,4-dien-1-yl)pyridin-1-ium bromide] | 5 | 800 ± 0.12 nM | 3900 ± 52 nM | – | – | – | – | – |
| COc1cc(/C=C/C(=O)/C=C/c2cc[n+](Cc3ccc(Br)cc3)cc2)ccc1O [Compound 7h, 1–(4-Bromobenzyl)-4-(1E,4E)-5–(4-hydroxy-3-methoxyphenyl)-3-oxopenta-1,4-dien-1-yl)pyridin-1-ium bromide] | 10 | 710 ± 0.16 nM | 6360 ± 106 nM | – | – | – | – | – |
| COc1cc(/C=C/C(=O)/C=C/c2cc[n+](Cc3ccc(C)cc3)cc2)ccc1O [Compound 7i, 4-(1E,4E)-5–(4-Hydroxy-3-methoxyphenyl)-3-oxopenta-1,4-dien-1-yl)-1–(4-methylbenzyl)pyridin-1-ium bromide] | 3 | 220 ± 0.17 nM | – | – | – | – | – | – |
| COc1cc(/C=C/C(=O)/C=C/c2cc[n+](Cc3ccc([N+](=O)[O-])cc3)cc2)ccc1O [Compound 7j, 4-(1E,4E)-5–(4-Hydroxy-3-methoxyphenyl)-3-oxopenta-1,4-dien-1-yl)-1–(4-nitrobenzyl)pyridin-1-ium bromide] | – | 230 ± 0.19 nM | 1400 ± 83 nM | – | – | – | – | – |
| O=C(/C=C/c1ccccc1)/C=C/c1ccc[n+](Cc2ccc(Br)cc2)c1 [Compound 8c, 1–(4-Bromobenzyl)-3-(1E,4E)-3-oxo-5-phenylpenta-1,4-dien-1-yl)pyridin-1-ium bromide] | 1 | 1160 ± 0.17 nM | – | – | – | – | – | – |
| Cc1ccc(C[n+]2cccc(/C=C/C(=O)/C=C/c3ccccc3)c2)cc1 [Compound 8d, 1–(4-Methylbenzyl)-3-(1E,4E)-3-oxo-5-phenylpenta-1,4-dien-1-yl)pyridin-1-ium bromide] | 4 | 630 ± 0.2 nM | 2500 ± 79 nM | – | – | – | – | – |
| O=C(/C=C/c1ccccc1)/C=C/c1ccc[n+](Cc2ccc([N+](=O)[O-])cc2)c1 [Compound 8e, 1–(4-Nitrobenzyl)-3-(1E,4E)-3-oxo-5-phenylpenta-1,4-dien-1-yl)pyridin-1-ium bromide] | 2 | – | 2700 ± 63 nM | – | – | – | – | – |
| COc1cc(/C=C/C(=O)/C=C/c2ccc[n+](Cc3ccc(Br)cc3)c2)ccc1O [Compound 8h, 1–(4-Bromobenzyl)-3-(1E,4E)-5–(4-hydroxy-3-methoxyphenyl)-3-oxopenta-1,4-dien-1-yl)pyridin-1-ium bromide] | 3 | 630 ± 0.22 nM | 1800 ± 121 nM | – | – | – | – | – |
| COc1cc(/C=C/C(=O)/C=C/c2ccc[n+](Cc3ccc(C)cc3)c2)ccc1O [Compound 8i, 3-(1E,4E)-5–(4-Hydroxy-3-methoxyphenyl)-3-oxopenta-1,4-dien-1-yl)-1–(4-methylbenzyl)pyridin-1-ium bromide] | 11 | 270 ± 21 nM | 2500 ± 100 nM | – | – | – | – | – |
| Cc1c(C)c2c(c(C)c1O)CCC(C)(C(=O)O)O2 (centres unmarked) [Trolox, reference compound] | – | – | – | 9.3 ± 1.2% | 24.7 ± 1.2% | 51.0 ± 2.3% | 91.5 ± 1.8% | 93.9 ± 0.1% |
| Cc1c(C)c2c(c(C)c1O)CC[C@@](C)(CCC[C@H](C)CCC[C@H](C)CCCC(C)C)O2 [α-tocopherol, reference compound] | – | – | – | 6.9 ± 2.3% | 15.9 ± 1.0% | 29.7 ± 1.3% | 56.4 ± 0.72% | 90.2 ± 0.04% |
